Values quoted from earlier work in paper PMC8698377, “In Vitro Hepatic Assessment of Cineole and Its Derivatives in Common Brushtail Possums (Trichosurus vulpecula) and Rodents” (Biology, 2021).
Like-named read-outs stand apart in the source and are kept apart here.

How the values were obtained:
CYP3A [1] = system: CYP3A; set-up: method as in PMID 12593759; conditions: possums, ketoconazole 5 µM, cited from earlier work
CYP3A [2] = system: CYP3A; set-up: method as in PMID 12593759; conditions: rats, ketoconazole; cited from earlier work

SMILES: CC(=O)N1CCN(c2ccc(OCC3COC(Cn4ccnc4)(c4ccc(Cl)cc4Cl)O3)cc2)CC1 (stereo not drawn) [Ketoconazole, ketoconazole]
- reduction of the formation of 9-hydroxycineole (CYP3A [1]; cineole concentration 10 µM): 15%
- reduction of the formation of 9-hydroxycineole (CYP3A [1]; cineole concentration 100 µM): 30%
- reduction of the metabolite formation (CYP3A [2]): 85%
